Source: US20170014487A1, “Method for treating ocular inflammation” (THE TRUSTEES OF COLUMBIA UNIVERSITY IN THE CITY OF NEW YORK, priority 2014, published 2017)

Test system: ICAM-1
Assay: Western blot of TNF-α-induced ICAM-1 expression in SV40-HCEC cells
Type: cell-based, human
Details: 1-μM secretin
Experimental: Experiments were conducted to set up an in vitro model for dry eye syndrome, using cell cultures of immortalized human cells from the cornea or conjunctiva using the SV40-HCEC corneal cell line of SV40 virus-immortalized corneal cells (12). SV40-HCEC cells were shown using immunofluorescence of anti-oxytocin receptor antibodies to contain oxytocin receptors in the plasma membrane (FIG. 4A, oxytocin receptor fluorescence is in red [top panel]; blue represents nuclear staining with DAPI stain [bottom panel]), consistent with the results showing its presence in rodent conjunctiva and cornea. Moreover, the presence of secretin receptors in SV40HCEC cells was shown using Western blot (FIG. 4B, the presence of secretin receptor migrating at the expected size [arrow]). M: Marker, S: Sample/secretin receptor. The lower band in the sample lane represents degradation product.
A Western blot-based assay was developed to assess for the role of oxytocin and secretin in dry eye syndrome in vitro. The expression of the […] ICAM-1 in SV40-HCEC cells was induced by adding the pro-inflammatory cytokine TNF-α [13]. In vivo, ICAM-1 acts to recruit neutrophils to sites of inflammation, and thus acts as a surrogate for inflammation in vitro.

secretin: neuropeptide; endocrine hormone of the glucagon family, commercially available as SecreFlo
Reduction of rate of accumulation of ICAM-1: about two-fold
